Experimental data reported in the supplement of paper PMC10883282.
± gives the standard deviation of the averaged measurements.

System: HS729
Assay: relative viability vs DMSO control (72 h) (fraction); higher = more viable cells
Summary of the method: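 Densities for seeding sarcoma cell lines into 384-well plates were set to give 80–90% confluence. After 24 h, 2.5 µl of serially diluted compound from source plates of 10 mM to 0.0002 mM went in, and plates stayed 72 h at 37 °C in 5% CO2 with 0.1% DMSO vehicle and a 5 µM positive control. Percent growth from ATPLite readings, averaged over up to triplicate wells, served as relative viability, rescaled so 1 means full and 0 means none.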

## CO[C@H]1C[C@@H]2CC[C@@H](C)[C@@](O)(O2)C(=O)C(=O)N2CCCC[C@H]2C(=O)O[C@H]([C@H](C)C[C@@H]2CC[C@@H](OP(C)(C)=O)[C@H](OC)C2)CC(=O)[C@H](C)/C=C(\C)[C@@H](O)[C@@H](OC)C(=O)[C@H](C)C[C@H](C)/C=C/C=C/C=C/1C [Ridaforolimus]
0.00017 µM
  relative viability: 0.962 ± 0.012
0.00051 µM
  relative viability: 1 ± 0.045
0.00152 µM
  relative viability: 0.977 ± 0.048
0.00457 µM
  relative viability: 0.907 ± 0.1
0.01372 µM
  relative viability: 0.923 ± 0.054
0.04115 µM
  relative viability: 0.944 ± 0.0096
0.1235 µM
  relative viability: 0.916 ± 0.12
0.3704 µM
  relative viability: 0.924 ± 0.096
1.111 µM
  relative viability: 0.86 ± 0.14
3.333 µM
  relative viability: 0.786 ± 0.065
10 µM
  relative viability: 0.763 ± 0.052

## O=C(Cc1ccc(-c2ccc(OCCN3CCOCC3)cc2)cn1)NCc1ccccc1 [KX2-391]
0.00017 µM
  relative viability: 1.09 ± 0.061
0.00051 µM
  relative viability: 1.02 ± 0.096
0.00152 µM
  relative viability: 0.943 ± 0.046
0.00457 µM
  relative viability: 0.959 ± 0.069
0.01372 µM
  relative viability: 0.912 ± 0.019
0.04115 µM
  relative viability: 0.792 ± 0.064
0.1235 µM
  relative viability: 0.623 ± 0.018
0.3704 µM
  relative viability: 0.562 ± 0.024
1.111 µM
  relative viability: 0.521 ± 0.029
3.333 µM
  relative viability: 0.501 ± 0.048
10 µM
  relative viability: 0.475 ± 0.019

## COc1cc2nccc(Oc3ccc(NC(=O)Nc4cc(C)on4)c(Cl)c3)c2cc1OC [Tivozanib]
0.00017 µM
  relative viability: 0.898 ± 0.058
0.00051 µM
  relative viability: 0.883 ± 0.018
0.00152 µM
  relative viability: 0.9572 ± 0.0089
0.00457 µM
  relative viability: 0.923 ± 0.046
0.01372 µM
  relative viability: 0.921 ± 0.052
0.04115 µM
  relative viability: 0.882 ± 0.017
0.1235 µM
  relative viability: 0.869 ± 0.043
0.3704 µM
  relative viability: 0.891 ± 0.044
1.111 µM
  relative viability: 0.894 ± 0.05
3.333 µM
  relative viability: 0.817 ± 0.0084
10 µM
  relative viability: 0.722 ± 0.02

## CCc1cc2c(cc1N1CCC(N3CCOCC3)CC1)C(C)(C)c1[nH]c3cc(C#N)ccc3c1C2=O [Alectinib]
0.00017 µM
  relative viability: 0.923 ± 0.021
0.00051 µM
  relative viability: 0.962 ± 0.027
0.00152 µM
  relative viability: 0.958 ± 0.035
0.00457 µM
  relative viability: 0.938 ± 0.073
0.01372 µM
  relative viability: 0.972 ± 0.047
0.04115 µM
  relative viability: 0.987 ± 0.021
0.1235 µM
  relative viability: 0.937 ± 0.029
0.3704 µM
  relative viability: 0.941 ± 0.045
1.111 µM
  relative viability: 1 ± 0.058
3.333 µM
  relative viability: 0.933 ± 0.022
10 µM
  relative viability: 1.02 ± 0.024

## COCc1c(-c2cc3cc(C)cc(OC)c3s2)c2c(N)ncnn2c1CN1CCNC(=O)C1 [Rogaratinib]
0.00017 µM
  relative viability: 1.06 ± 0.024
0.00051 µM
  relative viability: 0.957 ± 0.068
0.00152 µM
  relative viability: 0.967 ± 0.036
0.00457 µM
  relative viability: 0.91 ± 0.052
0.01372 µM
  relative viability: 0.92 ± 0.11
0.04115 µM
  relative viability: 0.882 ± 0.034
0.1235 µM
  relative viability: 0.755 ± 0.041
0.3704 µM
  relative viability: 0.645 ± 0.037
1.111 µM
  relative viability: 0.582 ± 0.039
3.333 µM
  relative viability: 0.485 ± 0.031
10 µM
  relative viability: 0.348 ± 0.024

## CN1CCC(COc2cnc(-c3cccc(Cn4nc(-c5cccc(C#N)c5)ccc4=O)c3)nc2)CC1 [Tepotinib]
0.00017 µM
  relative viability: 1.04 ± 0.054
0.00051 µM
  relative viability: 1 ± 0.048
0.00152 µM
  relative viability: 0.988 ± 0.034
0.00457 µM
  relative viability: 0.983 ± 0.041
0.01372 µM
  relative viability: 0.941 ± 0.057
0.04115 µM
  relative viability: 0.928 ± 0.055
0.1235 µM
  relative viability: 0.987 ± 0.027
0.3704 µM
  relative viability: 0.894 ± 0.02
1.111 µM
  relative viability: 0.926 ± 0.038
3.333 µM
  relative viability: 0.831 ± 0.029
10 µM
  relative viability: 0.829 ± 0.035

## Cc1cnc(Nc2ccc(OCCN3CCCC3)cc2)nc1Nc1cccc(S(=O)(=O)NC(C)(C)C)c1 [Fedratinib]
0.00017 µM
  relative viability: 1.03 ± 0.038
0.00051 µM
  relative viability: 0.948 ± 0.033
0.00152 µM
  relative viability: 0.99 ± 0.02
0.00457 µM
  relative viability: 0.928 ± 0.047
0.01372 µM
  relative viability: 0.924 ± 0.05
0.04115 µM
  relative viability: 0.888 ± 0.021
0.1235 µM
  relative viability: 0.805 ± 0.033
0.3704 µM
  relative viability: 0.649 ± 0.026
1.111 µM
  relative viability: 0.497 ± 0.0061
3.333 µM
  relative viability: 0.263 ± 0.025
10 µM
  relative viability: 0.0101 ± 0.0019

## Cn1cnc2c(F)c(Nc3ccc(Br)cc3F)c(C(=O)NOCCO)cc21 [Binimetinib]
0.00017 µM
  relative viability: 1.07 ± 0.013
0.00051 µM
  relative viability: 1.05 ± 0.063
0.00152 µM
  relative viability: 1.06 ± 0.12
0.00457 µM
  relative viability: 1.01 ± 0.077
0.01372 µM
  relative viability: 0.986 ± 0.035
0.04115 µM
  relative viability: 0.933 ± 0.052
0.1235 µM
  relative viability: 0.898 ± 0.019
0.3704 µM
  relative viability: 0.906 ± 0.023
1.111 µM
  relative viability: 0.906 ± 0.046
3.333 µM
  relative viability: 0.856 ± 0.013
10 µM
  relative viability: 0.811 ± 0.012

## C[C@@H]1CCN(C(=O)CC#N)C[C@@H]1N(C)c1ncnc2[nH]ccc12 [Tofacitinib]
0.00017 µM
  relative viability: 1.03 ± 0.017
0.00051 µM
  relative viability: 0.957 ± 0.029
0.00152 µM
  relative viability: 0.936 ± 0.031
0.00457 µM
  relative viability: 0.927 ± 0.036
0.01372 µM
  relative viability: 0.889 ± 0.036
0.04115 µM
  relative viability: 0.835 ± 0.065
0.1235 µM
  relative viability: 0.802 ± 0.029
0.3704 µM
  relative viability: 0.828 ± 0.013
1.111 µM
  relative viability: 0.861 ± 0.03
3.333 µM
  relative viability: 0.846 ± 0.02
10 µM
  relative viability: 0.75 ± 0.059

## Nc1cc(C(F)(F)F)c(-c2cc(N3CCOCC3)nc(N3CCOCC3)n2)cn1 [Buparlisib]
0.00017 µM
  relative viability: 0.937 ± 0.034
0.00051 µM
  relative viability: 0.95 ± 0.015
0.00152 µM
  relative viability: 0.936 ± 0.046
0.00457 µM
  relative viability: 0.906 ± 0.083
0.01372 µM
  relative viability: 0.902 ± 0.062
0.04115 µM
  relative viability: 0.89 ± 0.012
0.1235 µM
  relative viability: 0.812 ± 0.052
0.3704 µM
  relative viability: 0.702 ± 0.059
1.111 µM
  relative viability: 0.568 ± 0.053
3.333 µM
  relative viability: 0.327 ± 0.023
10 µM
  relative viability: 0.274 ± 0.026

## Cn1cc(-c2cc3c(N4CCN(c5ncc([C@@](C)(N)c6ccc(F)cc6)cn5)CC4)ncnn3c2)cn1 [Avapritinib]
0.00017 µM
  relative viability: 0.909 ± 0.046
0.00051 µM
  relative viability: 0.949 ± 0.023
0.00152 µM
  relative viability: 0.9313 ± 0.0083
0.00457 µM
  relative viability: 0.916 ± 0.037
0.01372 µM
  relative viability: 0.909 ± 0.025
0.04115 µM
  relative viability: 0.899 ± 0.077
0.1235 µM
  relative viability: 0.864 ± 0.093
0.3704 µM
  relative viability: 0.822 ± 0.084
1.111 µM
  relative viability: 0.814 ± 0.11
3.333 µM
  relative viability: 0.819 ± 0.086
10 µM
  relative viability: 0.802 ± 0.13

## C=CC(=O)N1CCC([C@@H]2CCNc3c(C(N)=O)c(-c4ccc(Oc5ccccc5)cc4)nn32)CC1 [Zanubrutinib]
0.00017 µM
  relative viability: 1.06 ± 0.046
0.00051 µM
  relative viability: 1.07 ± 0.06
0.00152 µM
  relative viability: 1.05 ± 0.061
0.00457 µM
  relative viability: 1.05 ± 0.072
0.01372 µM
  relative viability: 1.06 ± 0.082
0.04115 µM
  relative viability: 1.04 ± 0.099
0.1235 µM
  relative viability: 1.06 ± 0.062
0.3704 µM
  relative viability: 1.03 ± 0.095
1.111 µM
  relative viability: 0.961 ± 0.094
3.333 µM
  relative viability: 1.02 ± 0.074
10 µM
  relative viability: 0.873 ± 0.077

## CCCS(=O)(=O)Nc1ccc(F)c(C(=O)c2c[nH]c3ncc(-c4ccc(Cl)cc4)cc23)c1F [Vemurafenib]
0.00017 µM
  relative viability: 0.9411 ± 0.0078
0.00051 µM
  relative viability: 0.97 ± 0.024
0.00152 µM
  relative viability: 0.949 ± 0.051
0.00457 µM
  relative viability: 0.949 ± 0.05
0.01372 µM
  relative viability: 0.962 ± 0.021
0.04115 µM
  relative viability: 0.915 ± 0.03
0.1235 µM
  relative viability: 0.955 ± 0.031
0.3704 µM
  relative viability: 0.908 ± 0.013
1.111 µM
  relative viability: 0.9276 ± 0.0087
3.333 µM
  relative viability: 0.856 ± 0.065
10 µM
  relative viability: 0.73 ± 0.016

## COc1cc2c(Oc3ccc4[nH]c(C)cc4c3F)ncnc2cc1OCCCN1CCCC1 [Cediranib]
0.00017 µM
  relative viability: 0.964 ± 0.077
0.00051 µM
  relative viability: 0.991 ± 0.077
0.00152 µM
  relative viability: 0.954 ± 0.044
0.00457 µM
  relative viability: 0.962 ± 0.086
0.01372 µM
  relative viability: 0.991 ± 0.045
0.04115 µM
  relative viability: 0.968 ± 0.057
0.1235 µM
  relative viability: 0.94 ± 0.059
0.3704 µM
  relative viability: 0.8 ± 0.1
1.111 µM
  relative viability: 0.665 ± 0.039
3.333 µM
  relative viability: 0.834 ± 0.024
10 µM
  relative viability: 0.83 ± 0.026

## CC[C@H](Nc1ncnc2[nH]cnc12)c1nc2cccc(F)c2c(=O)n1-c1ccccc1 [Idelalisib]
0.00017 µM
  relative viability: 1.07 ± 0.061
0.00051 µM
  relative viability: 1.07 ± 0.073
0.00152 µM
  relative viability: 1.03 ± 0.055
0.00457 µM
  relative viability: 1.05 ± 0.023
0.01372 µM
  relative viability: 1.01 ± 0.038
0.04115 µM
  relative viability: 0.987 ± 0.018
0.1235 µM
  relative viability: 0.947 ± 0.049
0.3704 µM
  relative viability: 0.919 ± 0.035
1.111 µM
  relative viability: 0.905 ± 0.05
3.333 µM
  relative viability: 0.843 ± 0.036
10 µM
  relative viability: 0.704 ± 0.011
